Measured values taken from patent publication EP1458697B1, “BIPHENYLMETHYL-THIAZOLIDINEDIONES AND ANALOGUES AND THEIR USE AS PPAR-GAMMA ACTIVATORS” (Galderma Research & Development, S.N.C., priority 2001, dated 2003).

Columns and labels:
[1] = target: T1, récepteur chimère Gal-PPARα (Homo sapiens, UniProt Q07869); test: Transactivation test, same protocol with chimeric receptor Gal-PPARα; assay type: cell-based; details: Hela cells; for activation at 1 µM: 24 h, compound at 1 microM, percent of activation relative to reference agonist (Wy 14643 = 100%), read-out: % d'activation (à 1 microM) PPARα; for AC50: concentration giving 50% activation relative to reference agonist, read-out: AC50 (en nM) PPARα
T1 sequence (Q07869 167-468): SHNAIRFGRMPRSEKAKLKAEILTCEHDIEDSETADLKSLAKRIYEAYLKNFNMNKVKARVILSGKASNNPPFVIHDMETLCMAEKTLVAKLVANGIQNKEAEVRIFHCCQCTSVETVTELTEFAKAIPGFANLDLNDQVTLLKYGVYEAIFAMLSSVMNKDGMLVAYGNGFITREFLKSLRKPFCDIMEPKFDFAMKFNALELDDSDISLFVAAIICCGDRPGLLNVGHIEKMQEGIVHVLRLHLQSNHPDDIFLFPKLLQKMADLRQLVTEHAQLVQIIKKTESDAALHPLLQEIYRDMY
Text: De préférence, l'activateur des récepteurs de type PPARγ est spécifique, c'est à dire qu'il présente un rapport du pourcentage d'activation des récepteurs PPARγ, au pourcentage d'activation des récepteurs PPARα (calculé par rapport à un composé de référence, le Wy 14643, activant les PPARα de 100%) supérieur ou égal à 3. De préférence, ce rapport est supérieur ou égal à 5 et plus avantageusement supérieur ou égal à 10.
(§1) La capacité des molécules à activer et/ou inhiber les récepteurs PPARγ est évaluée à partir de cellules Hela transfectées de manière stable avec le récepteur chimère Gal-PPARγ (LBD).
(§2) Des plaques 96 puits sont ensemencées à raison de 10 000 cellules /100 µl / puit dans du milieu DMEM 10% SDL puis placées 24 heures à 37°C, 7% CO2.
(§3) Pour déterminer l'activité agoniste PPARγ, les cellules sont ensuite traitées par ajout de 5 µl puit des molécules à tester à la concentration finale de 1 µM. Des cellules sont également traitées en parallèle avec un agoniste de référence, l'acide (-)-3-{4-[2-(Benzooxazol-2-yl-methyl-amino)-ethoxy]-phenyl}-2-ethoxy-propionique, 1 µM.
(§4) Après une nouvelle incubation de 24 heures à 37°C, 7% CO2, un dosage de la luciférase est effectué à l'aide du kit « Steady-Glo Luciferase Assay System » de Promega. Le comptage de la luminescence se fait sur un lecteur de microplaque Microbéta Trilux (Wallac).
(§5) L'activité agoniste du produit testé sera exprimée en pourcentage d'activation par rapport au témoin agoniste l'agoniste de référence à 1 µM.
En appliquant ce même protocole avec le récepteur chimère Gal-PPARα, on peut mesurer l'activité agoniste des composés vis à vis des récepteurs PPAR alpha et ainsi la comparer avec celui du récepteur PPARγ.
(§6) L'AC50, exprimée en nM, est déterminée comme la concentration permettant d'obtenir 50% d'activation du signal basal par rapport à l'agoniste de référence.

[2] = target: T2, récepteur chimère Gal-PPARγ (LBD) (Homo sapiens, UniProt P37231); test: Transactivation test, Hela cells stably transfected with chimeric receptor Gal-PPARγ (LBD), luciferase readout; assay type: cell-based; details: M-HeLa, 24 h, compound at 1 microM, percent of activation relative to reference agonist at 1 µM, read-out: % d'activation (à 1 microM) PPARγ
T2 construct: le récepteur chimère Gal-PPARγ (LBD); Gal (fusion partner); expressed in transfected cells; host or cells: HeLa cells, stably transfected
T2 sequence (P37231 238-503 limits assumed): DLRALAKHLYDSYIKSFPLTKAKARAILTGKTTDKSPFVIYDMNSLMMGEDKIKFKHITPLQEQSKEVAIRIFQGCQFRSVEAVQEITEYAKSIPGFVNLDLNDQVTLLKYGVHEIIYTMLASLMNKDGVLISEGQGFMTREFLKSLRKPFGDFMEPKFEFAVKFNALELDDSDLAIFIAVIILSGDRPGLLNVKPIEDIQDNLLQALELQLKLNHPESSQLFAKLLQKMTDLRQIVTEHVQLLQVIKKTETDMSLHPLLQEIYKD
Method: L'activité agoniste vis à vis des récepteurs PPARγ des composés selon l'invention peut être évaluée par des tests de transactivation.
as §1, §2, §3, §4, §5, §6

Compound | activation at 1 µM [1] [%] | AC50 [1] [nM] | activation at 1 µM [2] [%]
COC(=O)CCCCCCCCC(=O)N(C)Cc1cccc(-c2ccc(CC3SC(=O)NC3=O)cc2)c1 (stereo not shown) [Composé de l'exemple 2, 9-{[4'-(2,4-Dioxo-thiazolidin-5-ylmethyl)-biphenyl-3-ylmethyl]-methyl-carbamoyl}-nonanoatede méthyle] | 13.7 |  | 
COC(=O)c1ccc(C(=O)N(C)Cc2cccc(-c3ccc(CC4SC(=O)NC4=O)cc3)c2)cc1 (stereo not shown) [Composé de l'exemple 3, N-[4'-(2,4-Dioxo-thiazolidin-5-ylmethyl)-biphenyl-3-ylmethyl]-N-methyl-terephthalamatede méthyle] | 22.3 | > 50000 | 
CN(Cc1cccc(-c2ccc(CC3SC(=O)NC3=O)cc2)c1)C(=O)CCC1CCCC1 (stereo not shown) [Composé de l'exemple 4, 3-Cyclopentyl-N-[4'-(2,4-dioxo-thiazolidin-5-ylmethyl)-biphenyl-3-ylmethyl]-N-methyl-propionamide] | 39.8 | > 50000 | 
CN(Cc1cccc(-c2ccc(CC3SC(=O)NC3=O)cc2)c1)C(=O)c1cccc2ccccc12 (stereo not shown) [Composé de l'exemple 5, N-[4'-(2,4-dioxo-thiazolidin-5-ylmethyl)-biphenyl-3-ylmethyl]-N-methyl-naphthalene-1-carboxamide] | 26.6 | > 50000 | 
CN(Cc1cccc(-c2ccc(CC3SC(=O)NC3=O)cc2)c1)C(=O)c1ccc2ccccc2c1 (stereo not shown) [Composé de l'exemple 6, N-[4'-(2,4-dioxo-thiazolidin-5-ylmethyl)-biphenyl-3-ylmethyl]-N-methyl-naphthalene-2-carboxamide] | 7.9 | > 50000 | 
CN(Cc1cccc(-c2ccc(CC3SC(=O)NC3=O)cc2)c1)C(=O)COc1ccccc1 (stereo not shown) [Composé de l'exemple 7, N-[4'-(2,4-Dioxo-thiazolidin-5-ylmethyl)-biphenyl-3-ylmethyl]-N-methyl-2-phenoxy-acetamide] | 37.8 |  | 97.2
CN(Cc1cccc(-c2ccc(CC3SC(=O)NC3=O)cc2)c1)C(=O)c1cccn1C (stereo not shown) [Composé de l'exemple 8, N-[4'-(2,4-dioxo-thiazolidin-5-ylmethyl)-biphenyl-3-ylmethyl]-N-methyl-1-Methyl-1H-pyrrole-2-carboxamide] | 33.6 |  | 97.2
CN(Cc1cccc(-c2ccc(CC3SC(=O)NC3=O)cc2)c1)C(=O)C12CC3CC(CC(C3)C1)C2 (stereo not shown) [Composé de l'exemple 9, N-[4'-(2,4-dioxo-thiazolidin-5-ylmethyl)-biphenyl-3-ylmethyl]-N-methyl-adamantane-1-carboxamide] | 4.3 |  | 106

The remaining lines, values ahead:

activation at 1 µM [1] [%] | AC50 [1] [nM] | activation at 1 µM [2] [%] | Compound
13.8 | > 50000 | 183 | CN(Cc1cccc(-c2ccc(CC3SC(=O)NC3=O)cc2)c1)C(=O)c1ccc(-c2ccccc2)cc1 (stereo not shown) [Composé de l'exemple 10, N-[4'-(2,4-dioxo-thiazolidin-5-ylmethyl)-biphenyl-3-ylmethyl]-N-methyl-biphenyl-4-carboxamide]
13.2 | > 50000 | 90.1 | CN(Cc1cccc(-c2ccc(CC3SC(=O)NC3=O)cc2)c1)C(=O)c1cc2ccccc2s1 (stereo not shown) [Composé de l'exemple 11, N-[4'-(2,4-dioxo-thiazolidin-5-ylmethyl)-biphenyl-3-ylmethyl]-N-methyl-benzo[b]thiophene-2-carboxamide]
12.3 | > 50000 | 168 | CN(Cc1cccc(-c2ccc(CC3SC(=O)NC3=O)cc2)c1)C(=O)CCCCC(=O)c1ccccc1 (stereo not shown) [Composé de l'exemple 12, N-[4'-(2,4-dioxo-thiazolidin-5-ylmethyl)-biphenyl-3-ylmethyl]-N-methyl-6-oxo-6-phenyl-hexanamide]
13.4 | > 50000 | 112 | CN(Cc1cccc(-c2ccc(CC3SC(=O)NC3=O)cc2)c1)C(=O)c1ccc(N(C)C)c2ccccc12 (stereo not shown) [Composé de l'exemple 13, 4-Dimethylamino-N-[4'-(2,4-dioxo-thiazolidin-5-ylmethyl)-biphenyl-3-ylmethyl]-N-methyl-naphthalene-1-carboxamide]
19 |  | 76.7 | CN(Cc1cccc(-c2ccc(CC3SC(=O)NC3=O)cc2)c1)C(=O)c1ccc(S(C)(=O)=O)cc1 (stereo not shown) [Composé de l'exemple 14, N-[4'-(2,4-Dioxo-thiazolidin-5-ylmethyl)-biphenyl-3-ylmethyl]-4-methanesulfonyl-N-methyl-benzamide]
28.8 | > 50000 | 102 | CN(Cc1cccc(-c2ccc(CC3SC(=O)NC3=O)cc2)c1)C(=O)c1ccc(C(=O)c2ccccc2)cc1 (stereo not shown) [Composé de l'exemple 15, N-[4'-(2,4-Dioxo-thiazolidin-5-ylmethyl)-biphenyl-3-ylmethyl]-N-methyl-4-(1-phenyl-methanoyl)-benzamide]
22.9 | > 50000 | 93.3 | COCCOCOc1ccc2cc(C(=O)N(C)Cc3cccc(-c4ccc(CC5SC(=O)NC5=O)cc4)c3)ccc2c1 (stereo not shown) [Composé de l'exemple 16, 6-(2-Methoxy-ethoxymethoxy)-N-[4'-(2,4-dioxo-thiazolidin-5-ylmethyl)-biphenyl-3-ylmethyl]-N-methyl-naphthalene-2-carboxamide]
15.1 | > 50000 | 96.1 | CN(Cc1cccc(-c2ccc(CC3SC(=O)NC3=O)cc2)c1)C(=O)c1ccc2cc(O)ccc2c1 (stereo not shown) [Composé de l'exemple 17, 6-Hydroxy-N-[4'-(2,4-dioxo-thiazolidin-5-ylmethyl)-biphenyl-3-ylmethyl]-N-methyl-naphthalene-2-carboxamide]
37.3 | > 50000 | 90.7 | CSc1ccc(C(=O)N(C)Cc2cccc(-c3ccc(CC4SC(=O)NC4=O)cc3)c2)cc1 (stereo not shown) [Composé de l'exemple 18, N-[4'-(2,4-Dioxo-thiazolidin-5-ylmethyl)-biphenyl-3-ylmethyl]-N-methyl-4-methylsulfanyl-benzamide]
100 | > 50000 | 102 | CCO[C@@H](Cc1ccc(-c2cccc(CN(C)C(=O)c3ccc(-c4ccccc4)cc3)c2)cc1)C(=O)O [Composé de l'exemple 19, Acide (S)-3-(3'-{[(1-Biphenyl-4-yl-methanoyl)-methyl-amino]-methyl}-biphenyl-4-yl)-2-ethoxy-propionique]
41.9 | > 50000 | 114 | CCO[C@@H](Cc1ccc(-c2cccc(CN(C)C(=O)CCCCC(=O)c3ccccc3)c2)cc1)C(=O)O [Composé de l'exemple 20, Acide (S)-2-Ethoxy-3-(3'-{[methyl-(6-oxo-6-phenyl-hexanoyl)-amino]-methyl}-biphenyl-4-yl)-propionique]
-4.2 |  | 104 | CN(C(=O)Nc1ccc2ccccc2c1)c1cccc(-c2ccc(CC3SC(=O)NC3=O)cc2)c1 (stereo not shown) [Composé de l'exemple 21, 1-[4'-(2,4-Dioxo-thiazolidin-5-ylmethyl)-biphenyl-3-yl]-1-methyl-3-naphthalen-2-yl-urée]
